Patent publication US10154991B2, “Anesthetic compounds and related methods of use” (priority 2012, dated 2018)

What was measured:
[1] = tested on: 68 receptors, ion channels and transporters; test: radioligand binding screen; details: 10 μM, each radioligand
[2] = Octanol:water partition coefficients; assay type: physicochemical; details: 10 mM Tris pH 7.4; read-out: Octanol/Water Partition Coefficient ± SD (converted)
Procedure: One mg of each hypnotic was added to 10 ml of water buffered with 10 mM Tris (pH 7.4) and 0.5 ml or 1 ml of octanol. The mixture was stirred overnight and then centrifuged to more fully separate the organic and aqueous phases. The relative hypnotic concentrations in each phase (i.e. the partition coefficient) were determined by high performance liquid chromatography as described for blood.

[3] = In vitro metabolic half-life of hypnotics in rat blood; assay type: in vitro ADME; details: rat
Procedure: On the day of study, whole blood was drawn from the femoral venous catheters of 3 Sprague-Dawley rats (1-2 ml/rat), immediately anticoagulated with heparin (38 U), pooled, and stored on ice. A 1 ml aliquot of blood was warmed at 37° C. for 5 minutes and hypnotic (from a 40 mM in dimethyl sulfoxide stock solution) was added to a final concentration of 100 μM. After the desired incubation time, a 150 μl sample was removed and the metabolic reaction was quenched with 150 μl acetonitrile (Sigma-Aldrich, St. Louis, Mo.). Zero time point samples were prepared by adding 150 μl acetonitrile to blood prior to adding hypnotic (from a 4 mM in dimethyl sulfoxide stock solution). The quenched samples were centrifuged and the resultant supernatant separated and stored at −20° C. until analyzed. Hypnotic concentrations in thawed samples were determined by high performance liquid chromatography using a Varian Prostar system with a 4.6×250 mm Proto 300 C18 column (Nest Group, Southborough, Mass.) with the UV detector set at 240 nm.

[4] = target: T1, human α1(L264T), β2 and γ2L subunits of the GABAA receptor (Homo sapiens, UniProt P14867+P47870, L291T); test: GABAA receptor current in Xenopus oocytes, 2-electrode voltage clamp; assay type: cell-based
T1 construct: expressed in transfected cells; host or cells: Xenopus oocytes
Procedure: Cyclopropyl-MOC-metomidate induces anesthesia by acting as a positive allosteric modulator of the γ-aminobutyric acid (GABA) type A (GABAA) receptor. Cyclopropyl-MOC-metomidate and its principle metabolite, CPM-acid, were evaluated for their ability to potentiate activation of GABAA receptor current in Xenopus oocytes expressing the human α1(L264T), β2 and γ2L subunits of the GABAA receptor using established methods (Ge et al., 2011). The […] mutant was used rather than wild-type GABAA receptor because it is directly activated by anesthetics, allowing a simpler assessment of the drug potency without the need for concomitant activation by GABA. Anesthetic potency on this mutated GABAA receptor is similar to that on wild-type receptors. Currents were recorded using conventional 2-electrode voltage clamp technique at a holding potential of −50 mV. Oocytes were placed in a 0.04-mL recording chamber and constantly perfused at a rate of 4-6 mL/min. The current response to ABP-700 or CPM-acid was normalized to that produced by 100 μM GABA in the same oocyte and data presented as mean±SD from 3-6 oocytes.

[5] = in vivo
Sprague-Dawley rats = test: In vivo sedative/hypnotic testing, IV bolus, rats; set-up: species or system rat; details: rats
Procedure: Animals were housed in a dedicated room at the vivarium of VivoPath Inc., located at Redstone Center, 55 Union Street, Worcester, Mass. Housing and care was as specified in the USDA Animal Welfare Act (9 CFR, Parts 1, 2, and 3) and as described in the Guide for the Care and Use of Laboratory Animals from the National Research Council. Environmental conditions of housing rooms are set at the following ranges: temperature: 70±7° F. (22±4° C.), humidity: 50±20%, light cycle: 12-hour light/12-hour dark cycle—lights on at 7 am and off at 7 pm., air changes: ten or more air changes per hour with 100% fresh air. The animals' body weights were measured prior to the first dose on each experimental day.
Adult male Sprague-Dawley rats (225-300 g) were purchased from Harlan (South Easton, Mass.).
Drugs were prepared in either dimethylsulfoxide/saline or saline vehicle or hydroxypropyl-β-cyclodextrin (20% in water, pH 7.0) solution and were administered as an intravenous bolus injection. Animals received 1-4 doses of drug(s) during an experimental day, either ascending doses or different drugs. Doses were administered at intervals equal to the longer of 1 h or 10-times the duration of apparent sedative/hypnotic effects from the previous dose. The sedative/hypnotic properties of the drugs were evaluated by observation of the rats, ranging from mild excitation, mild sedation apparent due to reduced activity, and moderate sedation to hypnosis reflected by loss of righting reflex (LORR, the ability to place rear and hind legs under the body, as well as attenuation/loss of nociceptive reflexes).

T1 sequence (P14867 28-456 L291T): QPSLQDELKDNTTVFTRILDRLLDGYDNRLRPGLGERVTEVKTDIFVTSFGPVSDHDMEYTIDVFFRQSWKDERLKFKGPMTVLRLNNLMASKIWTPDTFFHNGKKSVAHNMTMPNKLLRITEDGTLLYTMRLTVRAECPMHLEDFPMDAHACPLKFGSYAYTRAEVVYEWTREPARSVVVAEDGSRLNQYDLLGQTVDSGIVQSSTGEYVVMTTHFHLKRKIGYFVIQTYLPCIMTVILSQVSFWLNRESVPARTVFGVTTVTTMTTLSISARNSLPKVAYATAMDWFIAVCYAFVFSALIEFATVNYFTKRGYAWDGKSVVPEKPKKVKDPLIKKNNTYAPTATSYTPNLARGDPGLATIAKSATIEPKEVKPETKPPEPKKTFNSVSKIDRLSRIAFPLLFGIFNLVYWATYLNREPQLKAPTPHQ
T1 sequence (P47870 25-512 limits assumed): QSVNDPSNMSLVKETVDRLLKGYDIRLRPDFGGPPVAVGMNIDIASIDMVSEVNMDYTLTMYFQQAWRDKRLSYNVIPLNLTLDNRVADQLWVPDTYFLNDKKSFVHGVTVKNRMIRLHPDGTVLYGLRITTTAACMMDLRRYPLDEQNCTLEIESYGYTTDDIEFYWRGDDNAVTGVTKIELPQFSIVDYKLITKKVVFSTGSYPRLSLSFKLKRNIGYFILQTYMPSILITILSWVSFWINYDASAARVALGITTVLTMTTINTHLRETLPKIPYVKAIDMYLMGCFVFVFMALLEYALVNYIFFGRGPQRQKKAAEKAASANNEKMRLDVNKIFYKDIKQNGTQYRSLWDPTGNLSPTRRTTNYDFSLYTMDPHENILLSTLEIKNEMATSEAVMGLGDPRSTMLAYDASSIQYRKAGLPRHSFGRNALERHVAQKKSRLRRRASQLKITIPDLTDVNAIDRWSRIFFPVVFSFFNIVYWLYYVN
T1 sequence (P18507 40-475 partner): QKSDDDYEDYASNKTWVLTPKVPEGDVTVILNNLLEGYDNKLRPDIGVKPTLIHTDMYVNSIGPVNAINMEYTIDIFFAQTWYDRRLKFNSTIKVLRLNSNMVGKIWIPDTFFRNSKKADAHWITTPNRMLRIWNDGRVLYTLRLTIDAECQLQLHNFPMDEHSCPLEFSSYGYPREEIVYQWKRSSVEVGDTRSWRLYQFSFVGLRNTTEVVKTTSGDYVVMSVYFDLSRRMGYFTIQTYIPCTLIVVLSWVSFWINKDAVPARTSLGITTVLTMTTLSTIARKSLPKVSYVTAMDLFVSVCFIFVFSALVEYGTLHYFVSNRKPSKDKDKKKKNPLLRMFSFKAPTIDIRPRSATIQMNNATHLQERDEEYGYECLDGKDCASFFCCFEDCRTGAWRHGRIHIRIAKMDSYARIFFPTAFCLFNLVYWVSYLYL

Structure (SMILES): COC(=O)C1(OC(=O)c2cncn2[C@H](C)c2ccccc2)CC1 [Cyclopropyl- methoxycarbonyl metomidate, cyclopropyl-methoxycarbonyl metomidate]
- inhibition of radioligand binding [1]: no more than 25%
- logD [2]: 2.62
- half-life at 100 μM ([3]; Sprague-Dawley, pooled heparinised whole blood, rat blood, 37° C., 100 μM, read-out: Blood Half-Life (95% CI)): 34.2 s
- in vitro metabolic half-life compared with methoxycarbonyl etomidate and etomidate [3]: intermediate between those of methoxycarbonyl etomidate and etomidate
- EC50 [4]: 5.8 ± 1.1 µM
- concentration having minimal effects on current [4]: ~0.3 µM
- plasma concentrations associated with anesthesia [5]: 0.2 to 3 µM
- slope of duration of LORR vs logarithm of dose (Sprague-Dawley rats): approximately 10
